From patent publication US7381824B2 (Agouron Pharmaceuticals, Inc., priority 2003, dated 2008)
pKi: −log10 of the molar value.

Legend:
[1] = system: human umbilical vein endothelial cells (HUVEC); test: HUVEC+VEGF proliferation assay; format: cell-based; conditions: Homo sapiens; VEGF-stimulated HUVEC proliferation, MTT, 72 hours
Method: HUVEC+VEGF Proliferation Assay
This assay determines the ability of a test compound to inhibit the growth factor-stimulated proliferation of human umbilical vein endothelial cells (“HUVEC”). HUVEC cells (passage 3-4, Clonetics, Corp.) were thawed into EGM2 culture medium (Clonetics Corp) in T75 flasks. Fresh EGM2 medium was added to the flasks 24 hours later. Four or five days later, cells were exposed to another culture medium (F12K medium supplemented with 10% fetal bovine serum (FBS), […] endothelial cell growth supplement (ECGS), and 0.1 mg/mL heparin). Exponentially-growing HUVEC cells were used in experiments thereafter. Ten to twelve thousand HUVEC cells were plated in 96-well dishes in […] of rich, culture medium (described above). The cells were allowed to attach for 24 hours in this medium. The medium was then removed by aspiration and […] of starvation media (F12K+1% FBS) was added to each well. After 24 hours, […] of test agent dissolved in 1% DMSO in starvation medium or this vehicle alone was added into each treatment well; the final DMSO concentration was 0.1%. One hour later, […] of VEGF (30 ng/mL) in starvation media was added to all wells except those containing untreated controls; the final VEGF concentration was 6 ng/mL. Cellular proliferation was quantified 72 hours later by MTT dye reduction, at which time cells were exposed for 4 hours MTT (Promega Corp.). Dye reduction was stopped by addition of a stop solution (Promega Corp.) and absorbance at 595 nm was determined on a 96-well spectrophotometer plate reader.

[2] = target: T1, human vascular endothelial growth factor receptor 2 (VEGF-R2) (Homo sapiens, UniProt P35968, DEL940-989/E990V); test: VEGF-R2 coupled spectrophotometric assay (FLVK, unphosphorylated VEGF-R2D50); format: biochemical; conditions: unphosphorylated VEGF-R2D50 (FLVK)
T1 construct: VEGF-R2D50 contains residues 806-939 and 990-1171; made in house; host or cells: baculovirus/insect cell system
T1 sequence (P35968 with tags, fused parts or gaps DEL940-989/E990V limits assumed): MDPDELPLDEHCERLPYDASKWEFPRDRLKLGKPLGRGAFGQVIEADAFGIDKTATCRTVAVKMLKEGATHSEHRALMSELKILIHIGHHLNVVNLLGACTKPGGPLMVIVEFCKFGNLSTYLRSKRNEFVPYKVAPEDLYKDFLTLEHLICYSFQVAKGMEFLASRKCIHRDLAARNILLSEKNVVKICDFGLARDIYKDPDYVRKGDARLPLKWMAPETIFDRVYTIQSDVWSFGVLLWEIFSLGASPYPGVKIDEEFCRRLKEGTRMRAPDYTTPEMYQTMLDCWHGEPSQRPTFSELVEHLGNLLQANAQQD
From the text: This construct determines the ability of a test compound to inhibit tyrosine kinase activity. A construct (VEGF-R2D50) of the cytosolic domain of human vascular endothelial growth factor receptor 2 (VEGF-R2) lacking the 50 central residues of the 68 residues of the kinase insert domain was expressed in a baculovirus/insect cell system. Of the 1356 residues of full-length VEGF-R2, VEGF-R2D50 contains residues 806-939 and 990-1171, and also one point mutation (E990V) within the kinase insert domain relative to wild-type VEGF-R2. Autophosphorylation of the purified construct was performed by incubation of the enzyme at a concentration of […] in the presence of 3 mM ATP and 40 mM MgCl2 in 100 mM HEPES, pH 7.5, containing 5% glycerol and 5 mM DTT, at 4° C. for 2 h. […] See Parast et al., Biochemistry, 37, 16788-16801 (1998).
VEGF-R2 Assay: Coupled Spectrophotometric (FLVK-P) Assay
The production of ADP from ATP that accompanies phosphoryl transfer was coupled to oxidation of NADH using phosphoenolpyruvate (PEP) and a system having pyruvate kinase (PK) and lactic dehydrogenase (LDH). The oxidation of NADH was monitored by following the decrease of absorbance at 340 nm (e340=6.22 cm^−1 mM^−1) using a Beckman DU 650 spectrophotometer. Assay conditions for phosphorylated VEGF-R2D50 (indicated as FLVK-P in the tables below) were the following: 1 mM PEP; […] NADH; 50 units of LDH/mL; 20 units of PK/mL; 5 mM DTT; 5.1 mM poly(E4Y1); 1 mM ATP; and 25 mM MgCl2 in 200 mM HEPES, pH 7.5. Assay conditions for unphosphorylated VEGF-R2D50 (indicated as FLVK in the tables) were the following: 1 mM PEP; […] NADH; 50 units of LDH/mL; 20 units of PK/mL; 5 mM DTT; 20 mM poly(E4Y1); 3 mM ATP; and 60 mM MgCl2 and 2 mM MnCl2 in 200 mM HEPES, pH 7.5. Assays were initiated with 5 to 40 nM of enzyme. K1 values were determined by measuring enzyme activity in the presence of varying concentrations of test compounds. The percent inhibition at 50 nM (% inhibition @ 50 nM) was determined by linear least-squares regression analysis of absorbance as a function of time. The binding inhibitions were fitted to equation as described by Morrison. The data were analyzed using Enzyme Kinetic and Kaleidagraph software.

| Structure (SMILES) | pKi [2] | IC50 [1] [nM] |
| --- | --- | --- |
| COc1ccc2c(Oc3ccc4c(C(=O)NC5CC5)c(C)oc4c3)ccnc2c1 [Example 63, N-cyclopropyl-6-[(7-methoxyquinolin-4-yl)oxy]-2-methyl-1-benzofuran-3-carboxamide] |  | < 1 |
| CNC(=O)n1c(C)cc2cc(Nc3ccnc4cc(-c5ccccn5)ccc34)ccc21 [Example 32] |  | 1 to 10 |
| CNC(=O)n1c(C)cc2cc(Nc3ccnc4cc(-c5ccncc5)ccc34)ccc21 [Example 11, N-2-dimethyl-5-[(7-pyridin-4-ylquinolin-4-yl]amino]-1H-indole-1-carboxamide] | 8.00 to 9.00 | < 1 |
| COc1ccc2c(Oc3ccc4c(C(=O)Nc5ccccn5)c(C)oc4c3)ccnc2c1 [Example 40, 6-[(7-methoxyquinolin-4-yl)oxy]-2-methyl-N-pyridin-2-yl-1-benzofuran-3-carboxamide] |  | < 1 |
| CCCCNC(=O)c1c(C)oc2cc(Oc3ccnc4cc(OC)ccc34)ccc12 [Example 39, N-butyl-6-[(7-methoxyquinolin-4-yl)oxy]-2-methyl-1-benzofuran-3-carboxamide] |  | < 1 |
| CNC(=O)c1c(C)oc2cc(Oc3ccnc4cc(OCCN5CCCC5)ccc34)ccc12 [Example 35, N,2-dimethyl-6-{[7-(2-pyrrolidin-1-ylethoxy)quinolin-4-yl]oxy}-1-benzofuran-3-carboxamide] |  | < 1 |
| C=CCOc1ccc2c(Oc3ccc4c(C(=O)NC)c(C)oc4c3)ccnc2c1 [Example 42, 6-{[7-(allyloxy)quinolin-4-yl]oxy}-N,2-dimethyl-1-benzofuran-3-carboxamide] |  | < 1 |
| CNC(=O)c1c(C)oc2cc(Oc3ccnc4cc(O)ccc34)ccc12 [Example 28, 6-[(7-hydroxyquinoline-4-yl)oxy]-N,2-dimethyl-1-benzofuran-3-carboxamide] |  | 1 to 10 |
| Cc1oc2cc(Oc3ccnc4cc(OCCNC5CCC5)ccc34)ccc2c1C(=O)NC1CC1 [Example 100] |  | 1 to 10 |
| COc1ccc2c(Oc3ccc4c(C(=O)NC(C)C)c(C)oc4c3)ccnc2c1 [Example 43, N-isopropyl-6-[(7-methoxyquinolin-4-yl)oxy]-2-methyl-1-benzofuran-3-carboxamide] |  | 1 to 10 |
| Cc1cc(C)nc(NC(=O)c2c(C)oc3cc(Oc4ccnc5cc(O)ccc45)ccc23)c1 [Example 109, N-(4,6-dimethylpyridin-2-yl)-6-[(7-hydroxyquinolin-4-yl)oxy]-2-methyl-1-benzofuran-3-carboxamide] |  | > 10 |
| COc1ccc2c(Oc3ccc4c(C(=O)NCCCN5CCOCC5)c(C)oc4c3)ccnc2c1 [Example 64, 6-[(7-methoxyquinolin-4-yl)oxy]-2-methyl-N-(3-morpholin-4-ylpropyl)-1-benzofuran-3-carboxamide] |  | 1 to 10 |
| COc1ccc2c(Oc3ccc4c(C(=O)Nc5cc(C)cc(C)n5)c(C)oc4c3)ccnc2c1 [Example 108, N-(4,6-dimethylpyridin-2-yl)-6-[(7-methoxyquinolin-4-yl)oxy]-2-methyl-1-benzofuran-3-carboxamide] |  | 1 to 10 |
| CCCCNC(=O)c1c(C)oc2cc(Oc3ccnc4cc(O)ccc34)ccc12 [Example 41, N-butyl-6-[(7-hydroxyquinolin-4-yl)oxy]-2-methyl-1-benzofuran-3-carboxamide] |  | 1 to 10 |
| COc1ccc2c(Oc3ccc4c(C(=O)NCCCN5CCOCC5)c(C)sc4c3)ccnc2c1 [Example 62, 6-[(7-methoxyquinolin-4-yl)oxy]-2-methyl-N-(3-morpholin-4-ylpropyl)-1-benzothiophene-3-carboxamide] |  | > 10 |

Now from value to compound, other results behind:

| pKi [2] | Structure (SMILES) | IC50 [1] [nM] |
| --- | --- | --- |
| 8.00 to 9.00 | CCCCNC(=O)c1c(C)oc2cc(Oc3ccnc4cc(OCCN5CCCCC5)ccc34)ccc12 [Example 47, N-butyl-2-methyl-6-{[7-(2-piperidin-1-ylethoxy)quinolin-4-yl]oxy}-1-benzofuran-3-carboxamide] | < 1 |
| > 9.00 | CNC(=O)c1c(C)oc2cc(Oc3ccnc4cc(-c5cccnc5)ccc34)ccc12 [Example 8, N-2-dimethyl-6-[(7-pyridin-3-ylquinolin-4-yl)oxy]-1-benzofuran-3-carboxamide] | < 1 |
| 8.00 to 9.00 | CCCCNC(=O)c1c(C)oc2cc(Oc3ccnc4cc(OCCN(C)C)ccc34)ccc12 [Example 46, N-butyl-6-({7-[2-(dimethylamino)ethoxy]quinolin-4-yl}oxy)-2-methyl-1-benzofuran-3-carboxamide] | < 1 |
| > 9.00 | CNC(=O)c1c(C)oc2cc(Oc3ccnc4cc(OC)ccc34)ccc12 [Example 29, 6-[(7-methoxyquinoline-4-yl)oxy]-N,2-dimethyl-1-benzofuran-3-carboxamide] | 1 to 10 |
| 8.00 to 9.00 | CCOCCNC(=O)c1c(C)oc2cc(Oc3ccnc4cc(OC)ccc34)ccc12 [Example 86, 6-[(7-methoxyquinolin-4-yl)oxy]-2-methyl-N-[ethoxy-ethyl]-1-benzofuran-3-carboxamide] | 1 to 10 |
| > 9.00 | CNC(=O)c1c(C)oc2cc(Oc3ccnc4cc(-c5ccco5)ccc34)ccc12 [Example 13, 6-{[7-(2-furyl)quinolin-4-yl]oxy}-N,2-dimethyl-1-benzofuran-3-carboxamide] | 1 to 10 |
| < 8.00 | COc1ccc2c(Oc3ccc4c(C(=O)NCCCN(C)C)c(C)sc4c3)ccnc2c1 [Example 51, N-[3-(dimethylamino)propyl]-6-[(7-methoxyquinolin-4-yl)oxy]-2-methyl-1-benzothiophene-3-carboxamide] | 1 to 10 |
| 8.00 to 9.00 | CNC(=O)c1c(C)oc2cc(Oc3ccnc4cc(OCCN5CCCCC5)ccc34)ccc12 [Example 38, N,2-dimethyl-6-{[7-(2-piperidin-1-ylethoxy)quinolin-4-yl]oxy}-1-benzofuran-3-carboxamide] | < 1 |
| 8.00 to 9.00 | COc1ccc2c(Oc3ccc4c(C(=O)NC(C)C)c(C)sc4c3)ccnc2c1 [Example 71, N-isopropyl-6-[(7-methoxyquinolin-4-yl)oxy]-2-methyl-1-benzothiophene-3-carboxamide] |  |
| > 9.00 | Cc1oc2cc(Oc3ccnc4cc(OCCO)ccc34)ccc2c1C(=O)NC1CC1 [Example 92, N-cyclopropyl-2-methyl-6-({7-[2-hydroxy-ethoxy]quinolin-4-yl}oxy)-1-benzofuran-3-carboxamide] |  |
| < 8.00 | CNC(=O)c1c(C)n(C)c2cc(Oc3ccnc4cc(OCCN5CCCCC5)ccc34)ccc12 [Example 79, N,1,2-trimethyl-6-{[7-(2-piperidin-1-ylethoxy)quinolin-4-yl]oxy}-1H-indole-3-carboxamide] |  |
| < 8.00 | CNC(=O)c1c(C)sc2cc(Oc3ccnc4ccc(O)cc34)ccc12 [Example 27, 6-[(6-hydroxyquinolin-4-yl)oxy]-N,2-dimethyl-1-benzothiophene-3-carboxamide] |  |
| > 9.00 | CNC(=O)c1c(C)oc2cc(Oc3ccnc4cc(OCC5OCCO5)ccc34)ccc12 [Example 83, 6-{[7-(1,3-dioxolan-2-ylmethoxy)quinolin-4-yl]oxy}-N,2-dimethyl-1-benzofuran-3-carboxamide] |  |
| > 9.00 | Cc1oc2cc(Oc3ccnc4cc(OCCNC(C)C)ccc34)ccc2c1C(=O)NC1CC1 [Example 95, N-cyclopropyl-6-({7-[2-(isopropylamino)ethoxy]quinolin-4-yl}oxy)-2-methyl-1-benzofuran-3-carboxamide] |  |
